Test results as given in ChEMBL document CHEMBL6153094, “Rationally designed highly amphipathic antimicrobial peptides demonstrating superior bacterial selectivity relative to the corresponding α-helix peptide” (Eur J Med Chem, 2025).
Calls of active or inactive are those of the source. No cut-off for these calls is given here.

Key:
Staphylococcus aureus [1] = assay: Antimicrobial activity against methicillin-drug resistant Staphylococcus aureus ATCC 33591 assessed as concentration required to eliminate 90% bacteria incubated for 18 hrs by broth-microdilution method; assay type: functional
Staphylococcus aureus [2] = assay: Antimicrobial activity against methicillin-drug resistant Staphylococcus aureus clinical isolate 936 assessed as concentration required to eliminate 90% bacteria incubated for 18 hrs by broth-microdilution method; assay type: functional
Staphylococcus aureus [3] = assay: Antibacterial activity against Staphylococcus aureus ATCC 25923 assessed as inhibition of bacterial growth at 2 times of MIC incubated for 18 hrs in presence of <2 microg/ml of chymotrypsin by absorbance based assay; assay type: functional, organism-based
Staphylococcus aureus [4] = assay: Antibacterial activity against Staphylococcus aureus ATCC 25923 assessed as inhibition of bacterial growth at 2 times of MIC incubated for 18 hrs in presence of 2000 microg/ml of chymotrypsin by absorbance based assay; assay type: functional, organism-based
Pseudomonas aeruginosa [5] = assay: Antibacterial activity against Pseudomonas aeruginosa ATCC 27853 incubated for 18 hrs in presence of ZnCl2 by Mueller-Hinton broth based assay; assay type: functional, organism-based
Staphylococcus aureus [6] = assay: Antibacterial activity against Staphylococcus aureus ATCC 25923 incubated for 18 hrs in presence of ZnCl2 by Mueller-Hinton broth based assay; assay type: functional, organism-based
Pseudomonas aeruginosa [7] = assay: Antibacterial activity against Pseudomonas aeruginosa ATCC 27853 assessed as fold change in MIC incubated for 18 hrs in presence of 2.5% serum by broth microdilution method; assay type: functional
Staphylococcus aureus [8] = assay: Antibacterial activity against Staphylococcus aureus ATCC 25923 assessed as fold change in MIC incubated for 18 hrs in presence of 5% serum by broth microdilution method; assay type: functional
Staphylococcus aureus [9] = assay: Antibacterial activity against Staphylococcus aureus ATCC 25923 incubated for 18 hrs in presence of 10% serum by broth microdilution method; assay type: functional, organism-based
Staphylococcus aureus [10] = assay: Antibiofilm activity in Staphylococcus aureus ATCC 25923 assessed as inhibition of biofilm formation at 1 times of MIC incubated for 24 hrs by crystal violet staining based analysis relative to control; assay type: functional
Staphylococcus aureus [11] = assay: Resistance fold, ratio of MIC for Staphylococcus aureus ATCC 25923 measured after 20 passages to MIC for Staphylococcus aureus ATCC 25923 measured immediately; assay type: functional
Pseudomonas aeruginosa [12] = assay: Resistance fold, ratio of MIC for Pseudomonas aeruginosa ATCC 27853 measured after 20 passages in presence of gentamicin to MIC for Pseudomonas aeruginosa ATCC 27853 measured immediately in presence of gentamicin; assay type: functional
Staphylococcus aureus [13] = assay: Antimicrobial activity against gentamicin-resistant Staphylococcus aureus ATCC 25923 assessed as inhibition of visible bacterial growth incubated for 18 hrs by broth-dilution method; assay type: functional
Pseudomonas aeruginosa [14] = assay: Bactericidal activity against Pseudomonas aeruginosa ATCC 27853 assessed as bacterial killing measured upto 360 mins by time-kill kinetics assay; assay type: functional, organism-based
Staphylococcus aureus [15] = assay: Bactericidal activity against Staphylococcus aureus ATCC 25923 assessed as bacterial killing measured upto 360 mins by time-kill kinetics assay; assay type: functional, organism-based
Staphylococcus aureus [16] = assay: Bactericidal activity against Staphylococcus aureus ATCC 25923 assessed as bacterial eradication at 4 times of MIC measured within 30 mins by time-kill kinetics assay; assay type: functional, organism-based
Pseudomonas aeruginosa [17] = assay: Antibacterial activity against Pseudomonas aeruginosa ATCC 27853 assessed as inhibition of bacterial growth compound pretreated with 256 microg/ml of LPS for 1 hrs followed by bacterial addition and measured after 18 hrs by absorbance based assay; assay type: functional, organism-based
Cell membrane [18] = assay: Disruption of outer membrane integrity in Pseudomonas aeruginosa ATCC 27853 assessed as increase in fluorescence intensity at 1 times of MIC measured for 12 mins by NPN uptake assay; assay type: subcellular
Cell membrane [19] = assay: Disruption of outer membrane integrity in Pseudomonas aeruginosa ATCC 27853 assessed as increase in fluorescence intensity at 4 times of MIC measured for 12 mins by NPN uptake assay; assay type: subcellular
Pseudomonas aeruginosa [20] = assay: Induction of morphological changes in Pseudomonas aeruginosa ATCC 27853 assessed as cellular fragmentation at 2 times of MIC incubated for 30 to 120 mins by SEM analysis; assay type: functional, organism-based; conditions: time 30-120 min
Pseudomonas aeruginosa [21] = assay: Induction of morphological changes in Pseudomonas aeruginosa ATCC 27853 assessed as blister formation at 2 times of MIC incubated for 30 to 120 mins by SEM analysis; assay type: functional, organism-based; conditions: time 30-120 min
Staphylococcus aureus [22] = assay: Induction of morphological changes in Staphylococcus aureus ATCC 25923 assessed as membrane disruption at 2 times of MIC incubated for 30 to 120 mins by SEM analysis; assay type: functional, organism-based; conditions: time 30-120 min
Staphylococcus aureus [23] = assay: Induction of morphological changes in Staphylococcus aureus ATCC 25923 assessed as blister formation at 2 times of MIC incubated for 30 to 120 mins by SEM analysis; assay type: functional, organism-based; conditions: time 30-120 min
[24] = Toxicity in male Balb/c mouse assessed as effect on survival at 63.5 mg/kg, ip measured after 7 days; assay type: organism-based; conditions: in vivo, 168 h, time 7 day
[25] = Toxicity in male Balb/c mouse assessed as mortality at 80 mg/kg, ip measured after 7 days relative to control; assay type: organism-based; conditions: in vivo, time 7 day
[26] = Toxicity in male Balb/c mouse assessed as lethal dose administered intraperitoneally for 7 days; conditions: in vivo, route ip, time 7 day
Staphylococcus aureus [27] = assay: Antibacterial activity against methicillin-resistant Staphylococcus aureus ATCC 33591 infected in male Balb/c mouse model of full thickness skin wound assessed as reduction in bacterial load in skin at 1 mg/ml pre-infected with bacteria for 1 hrs followed by compound administration at 1,24,48 and 72 hrs post infection and measured 60 hrs post infection by agar plate method; assay type: functional, organism-based; conditions: time 59.0 hrs
Staphylococcus aureus [28] = assay: Antibacterial activity against methicillin-resistant Staphylococcus aureus ATCC 33591 infected in male Balb/c mouse model of full thickness skin wound assessed as reduction in bacteria in skin wound at 1 mg/ml pre-infected with bacteria for 1 hrs followed by compound administration at 1,24,48 and 72 hrs post infection and measured after 10 days by photographic analysis; assay type: functional, organism-based; conditions: time 10.0 day
Staphylococcus aureus [29] = assay: Antibacterial activity against methicillin-resistant Staphylococcus aureus ATCC 33591 infected in male Balb/c mouse model of full thickness skin wound assessed as reduction in number of inflammatory cells in skin at 1 mg/ml pre-infected with bacteria for 1 hrs followed by compound administration at 1,12 and 36 hrs post infection and measured after 10 days by H and E staining based analysis; assay type: functional, organism-based; conditions: time 10.0 day

## H-RRWFRRWRRWFR-NH2
Staphylococcus aureus [1]
  EC90: 2.25 µM
Staphylococcus aureus [2]
  EC90: 5.22 µM
Staphylococcus aureus [3]
  Activity: Active
Staphylococcus aureus [4]
  Activity: Not active; Entire Loss Of Activity Observed
Pseudomonas aeruginosa [5]
  Activity: Active
Staphylococcus aureus [6]
  Activity: Active
Pseudomonas aeruginosa [7]
  fold change (FC): 32
Staphylococcus aureus [8]
  fold change (FC): 128
Staphylococcus aureus [9]
  Activity: inactive
Staphylococcus aureus [10]
  inhibition (INH): ~50%
Staphylococcus aureus [11]
  fold change (FC): <=2
Pseudomonas aeruginosa [12]
  fold change (FC): <=2
Staphylococcus aureus [13]
  MIC: 4 µM
Pseudomonas aeruginosa [14]
  Activity: Dose-dependent-effect
Staphylococcus aureus [15]
  Activity: Dose-dependent-effect
Staphylococcus aureus [16]
  Activity: Active
Pseudomonas aeruginosa [17]
  Activity: Not active; Compound Binds To Lps To Exert Its Activity
Cell membrane [18]
  Activity: Active
Cell membrane [19]
  Activity: Active
Pseudomonas aeruginosa [20]
  Activity: Active
Pseudomonas aeruginosa [21]
  Activity: Active
Staphylococcus aureus [22]
  Activity: Active
Staphylococcus aureus [23]
  Activity: Active
[24]
  Activity: Non-toxic
[25]
  mortality at 168 h: 25%
[26]
  LD50 at 168 h: 89.9 mg/kg
Staphylococcus aureus [27]
  Activity: Active
Staphylococcus aureus [28]
  Activity: Active; Obvious Facilitation Of Wound Healing Not Observed
Staphylococcus aureus [29]
  Activity: Active
